The results in this text go back to BindingDB's records for doi:10.1021/jm030438k (Harvard Medical School, 2004).

For one experiment, the target named is T1, Dihydrofolate reductase (Homo sapiens, UniProt P00374).
T1 sequence (P00374 whole entry): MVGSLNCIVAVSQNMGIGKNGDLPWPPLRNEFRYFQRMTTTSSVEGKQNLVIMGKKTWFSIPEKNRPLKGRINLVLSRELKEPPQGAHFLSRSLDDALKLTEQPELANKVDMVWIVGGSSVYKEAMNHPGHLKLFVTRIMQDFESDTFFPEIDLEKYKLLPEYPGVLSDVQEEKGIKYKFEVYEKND
Briefly: Inhibitory concentration against dihydrofolate reductase of rat liver.

For experiment [1], the target named is Dihydrofolate reductase (Homo sapiens) (UniProt P00374). Briefly: Inhibitory concentration against dihydrofolate reductace enzyme of humans.

What is called IC50 is the concentration that gives 50% inhibition. Higher therefore signals weaker potency in that assay.

On Dihydrofolate reductase, `COc1cc(Cc2cnc3nc(N)nc(N)c3c2C)cc(OC)c1` [6-(3,5-Dimethoxy-benzyl)-5-methyl-pyrido[2,3-d]pyrimidine-2,4-diamine] had an IC50 of 1.5 nM.
For `Cc1ccc(Cl)cc1Cc1cnc2nc(N)nc(N)c2c1C` [6-(5-Chloro-2-methyl-benzyl)-5-methyl-pyrido[2,3-d]pyrimidine-2,4-diamine], in experiment [1], the midpoint of inhibition, the IC50, lay at 2.8 nM.
